Measured values taken from patent US20260035369A1, “VINCAMINE DERIVATIVES, PREPARATION METHOD THEREFOR, AND USE THEREOF” (SOUTHWEST UNIVERSITY, priority 2023, published 2026).

System: bEnd.3 cells
Assay: Cellular ROS levels (DCFH-DA) by single cell analyzer
Assay type: cell-based
Conditions: 2 hours, FIG. 10
Procedure: (10) The effect of lipid nanoparticles formed from the vincamine derivative (compound 2 (A5-B2-C6) as an example) on cellular ROS levels was detected using a single cell analyzer:
To detect cellular oxidative stress and intracellular reactive oxygen species (ROS) levels, a dichlorodihydrofluorescein diacetate (DCFH-DA) reactive oxygen species assay kit was used to detect the green fluorescence signal of ROS. bEnd.3 cells were seeded in cell culture dishes (50000 cells per dish) and cultured in 1 mL of culture medium for 12 hours. The culture medium in the wells was discarded and replaced with fresh complete medium. Lipid nanoparticles formed from the vincamine derivative (compound 2 (A5-B2-C6)) were added to the cells, and the cells were incubated in the dark at 37° C. in a 5% CO2 atmosphere for 2 hours. The cells in each group were incubated in PBS buffer containing […] DCFH-DA at 37° C. for 30 min. The cells were then washed three times in PBS buffer solution containing 0.1% BSA and fixed on glass slides. ROS levels were detected at the single-cell level using a fiber optic probe with a tip of approximately […]. The tip was inserted into the cells fixed in PBS, and photon counts were continuously detected and calculated within 150 s.

Compound | cellular ROS levels
CCCCCCCC/C=C\CCCCCCCC(=O)OCC(C[N+](C)(C)C)OC(=O)CCCCCCC/C=C\CCCCCCCC (centres unmarked) [DOTAP] | high ROS levels
CCCCC/C=C\C/C=C\CCCCCCCCC(CCCCCCCC/C=C\C/C=C\CCCCC)OC(=O)CCCN(C)C [Dlin-MC3-DMA] | high ROS levels
